# Assay results as given in patent US12479829B2, “2-[2-methylazetidin-1-yl]-4-phenyl-6-(trifluoromethyl)-pyrimidine compounds” (Eli Lilly and Company, priority 2020, dated 2025).
# Legend:
# [1] = target: human KHK-C (Homo sapiens (Human), UniProt P50053); assay: KHK Enzyme Activity Assay for Human KHK-C; assay type: biochemical; settings: fructose 250 μM, ATP 150 μM; F1P production by RapidFire MS; read-out: hKHK-C IC50
# Experimental: (§1) KHK Enzyme Activity Assay for Human KHK-C and Human KHK-A
# (§2) The intrinsic potency for inhitibiton of KHK C or A activity may be measured using an enzymatic assay which measures the production of F1P. Compounds are prepared in DMSO and tested in a 10-point concentration curve, to create 3-fold serial dilutions of the compounds in a 96-well plate ranging from 20 μM to 1.02 nM. Enzyme is prepared in assay buffer [50 mM 4-(2-hydroxyethyl)piperazine-1-ethanesulfonic acid (HEPES), 10 mM potassium chloride, 100 mM magnesium chloride, 2 mM tris(2-carboxyethyl)phosphine (TCEP), 0.01% n-octyl glucoside] and incubated with compounds at RT for 15 min. The reaction is carried out in 100 μL volumes containing substrate concentrations of fructose (250 μM for KHK-C assay and 1.25 mM for KHK-A assay) and ATP (150 μM for both isoforms); which are further incubated at RT for 20 min. The reaction is then halted by the addition of stop buffer; consisting of 0.2% formic acid and 1 μg/ml ^13C6-fructose-6-phosphate (^13C6-F6P) internal standard. Plates are stored in −20° C. until RapidFire MS analysis.
# (§3) RapidFire MS Analysis for Quantitation of F1P
# (§4) An Agilent 300 RapidFire automated extraction system (Agilent, Santa Clara, CA) with three HPLC quaternary pumps is coupled to an Agilent 6495 triple quadrupole mass spectrometer (Agilent Technologies, Santa Clara, CA) equipped with an electrospray ionization (ESI) interface source. […]
# (§5) Solvent A, used for sample loading and washing, is 6 mM octylamine (Acros Organics 129495000) brought to pH 5.0 using acetic acid. […] Samples are sequentially analyzed by aspirating 10 μL onto the collection loop under vacuum directly from multiwell plates. […]
# (§6) The triple quadrupole mass spectrometer is equipped with an ESI source and analytes are monitored using selected reaction monitoring (SRM) in negative mode [M−H]−. F1P is monitored at m/z 259.02/96.9 and ^13C6-fructose-6-phospate is monitored at m/z 264.99/97. The area ratio values for F1P is calculated using ^13C6-fructose-6-phospate as internal standard.
# [2] = target: human KHK-A (Homo sapiens (Human), UniProt P50053); assay: KHK Enzyme Activity Assay for Human KHK-A; assay type: biochemical; settings: fructose 1.25 mM, ATP 150 μM; F1P production by RapidFire MS; read-out: hKHK-A IC50
# Experimental: as §1, §2, §3, §4, §5, §6
# [3] = test system: cellular KHK in HepG2 liver cells; assay: KHK Cellular Activity Assay (conversion of fructose to F1P in HepG2 liver cells); assay type: cell-based; settings: Homo sapiens, 8.33 mM D-Fructose-13C6, 3 h at 37° C.
# Experimental: An Agilent 300 RapidFire automated extraction system (Agilent, Santa Clara, CA) with three HPLC quaternary pumps is coupled to an Agilent 6495 triple quadrupole mass spectrometer (Agilent Technologies, Santa Clara, CA) equipped with an electrospray ionization (ESI) interface source. The RapidFire Mass Spec system is equipped with a reusable RapidFire C18 (type C) solid-phase extraction (SPE) cartridge (G9205A).
# Solvent A, used for sample loading and washing, is 6 mM octylamine (Acros Organics 129495000) brought to pH 5.0 using acetic acid. Solvent B, used for sample elution, is 20% water in ACN containing 0.1% formic acid. Samples are sequentially analyzed by aspirating 10 μL onto the collection loop under vacuum directly from multiwell plates. The 10 μL of sample is loaded onto the C18 cartridge and washed using solvent A at a flow rate of 1.25 mL/min for 5000 ms. The retained analytes are then eluted to the mass spectrometer using solvent B at a flow rate of 1.25 mL/min for 5000 ms. The system is re-equilibrated using solvent A at a flow rate of 1.25 mL/min for 2000 ms.
# as §6
# KHK Cellular Activity Assay
# Potency can be measured using a cellular assay for the inhibition of conversion of Fructose to F1P by cellular KHK. HepG2 liver cells are plated on 96-well cell culture plates in growth media [Dulbecco's Modified Eagle's medium (DMEM) high glucose, 10% heat-inactivated fetal bovine serum (HI FBS), 1×Penicillin/streptomycin] and allowed to attach overnight in a 37° C. incubator. The growth media is washed and replaced with assay media consisting of Gibco OptiMEM1 Reduced Serum Medium, 0.1% Casein, 8.33 mM D-Fructose-^13C6, and compound concentrations ranging from 100 μM to 0.0051 μM (10-point concentration curve). […]
# [4] = administered for 6 weeks; subjects with non-alcoholic fatty liver disease; cited from earlier work
# [5] = Pharmacokinetics in Sprague Dawley Rats; assay type: in vivo; settings: rat; for clearance / half-life / bioavailability: Sprague-Dawley, plasma, IV 1 mg/kg; for bioavailability: fasted, PO 3 mg/kg; for oral bioavailability / total clearance: result in words
# Experimental: (§7) Liquid Chromatograph with Tandem Mass Spectrometry (LC-MS/MS) Method for Pharmacokinetic Assays: Samples are extracted using a protein precipitation by adding 180 μL of MeOH:ACN (1:1, v/v) containing an internal standard to 50 μL of plasma. Samples are then diluted with MeOH:Water (1:1, v/v) to get concentrations within standard curve range. Diluted samples are analyzed by LC-MS/MS using a Sciex API 4000 triple quadrupole mass spectrometer (Applied Biosystems/MDS; Foster City, CA) equipped with a TurboIonSpray interface, and operated in positive ion mode. The analytes are chromatographically separated using a ECHELON C18 4 um 20×2.1 mm column. LC conditions are Water/1 M ammonium bicarbonate, (2000:10, v/v) (Mobile Phase A), and MeOH/1 M ammonium bicarbonate, (2000:10, v/v) (Mobile Phase B).
# Pharmacokinetics in Sprague Dawley Rats
# (§8) The compound is administered by a single oral (PO; 3 mg/kg; volume of 10 mL/kg) or intravenous (IV; 1 mg/kg; volume of 1 mL/kg) dose in vehicle. Blood is collected from each animal at multiple time points between 0 and up to 24 hours post-dosage. The plasma concentrations of Example 2 and Example 3 are determined by a LC-MS/MS method as described above.
# [6] = Pharmacokinetics in Dogs; assay type: in vivo, Beagle Dogs; settings: for oral bioavailability / total clearance: dog (in the rat [sic]), result in words
# Experimental: as §7
# as §8, with “(PO; 2” for “(PO; 3”, “of 2” for “of 10”
# [7] = beagle, plasma, dog, fed, IV 1 mg/kg
# human KHK-A, sequence (P50053 other isoform, or with tags, fused parts or gaps): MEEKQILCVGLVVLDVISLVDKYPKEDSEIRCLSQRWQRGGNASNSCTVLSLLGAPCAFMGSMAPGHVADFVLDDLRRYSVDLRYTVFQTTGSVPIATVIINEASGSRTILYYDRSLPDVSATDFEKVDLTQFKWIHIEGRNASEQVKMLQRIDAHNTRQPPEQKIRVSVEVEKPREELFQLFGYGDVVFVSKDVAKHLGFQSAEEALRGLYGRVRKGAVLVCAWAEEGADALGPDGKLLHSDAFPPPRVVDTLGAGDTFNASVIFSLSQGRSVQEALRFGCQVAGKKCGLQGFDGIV
# human KHK-C, sequence (P50053 whole entry): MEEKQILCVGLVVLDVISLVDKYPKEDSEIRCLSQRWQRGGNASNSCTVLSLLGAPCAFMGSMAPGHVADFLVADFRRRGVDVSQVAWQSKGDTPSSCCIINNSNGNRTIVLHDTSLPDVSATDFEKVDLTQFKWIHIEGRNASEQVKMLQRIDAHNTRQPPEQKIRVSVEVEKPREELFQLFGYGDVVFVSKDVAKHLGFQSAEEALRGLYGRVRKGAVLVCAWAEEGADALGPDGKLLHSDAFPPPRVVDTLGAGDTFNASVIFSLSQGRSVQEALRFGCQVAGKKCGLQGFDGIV
IC50 [1],IC50 [2],IC50 [3],clearance [5],half-life [5],bioavailability [5],oral bioavailability [5],total clearance [5],"clearance [6, 7]","half-life [6, 7]","half-life ([6]; beagle, plasma, dog, fed, PO 2 mg/kg)","bioavailability ([6]; beagle, plasma, dog, fed, PO 2 mg/kg, IV 1 mg/kg)",oral bioavailability [6],total clearance [6],SMILES,whole liver fat as measured by magnetic resonance imaging-proton density fat fraction [4]
22.6 nM,21.5 nM,911 nM,–,–,–,–,–,–,–,–,–,–,–,"C[C@H]1CCN1c1nc(-c2ccc(C(=O)O)cc2)cc(C(F)(F)F)n1 [Example 1, 4-{2-[(2S)-2-Methylazetidin-1-yl]-6-(trifluoromethyl)pyrimidin-4-yl}benzoic acid]",–
–,–,–,–,–,–,–,–,–,–,–,–,–,–,C[C@H]1CCN1c1nc(N2C[C@@H]3[C@@H](CC(=O)O)[C@@H]3C2)cc(C(F)(F)F)n1 [PF-06835919],reduces whole liver fat
29.7 nM,23.4 nM,82.1 nM,12.7 mL/min/kg,177 min,69%,high,low,4.77 mL/min/kg,304 min,271 min,~96%,high,low,"C[C@H]1CCN1c1nc(-c2ccc(C(=O)NC(CO)(CO)CO)cc2)cc(C(F)(F)F)n1 [Example 3, N-[2-Hydroxy-1,1-bis(hydroxymethyl)ethyl]-4-{2-[(2S)-2-methylazetidin-1-yl]-6-(trifluoromethyl)pyrimidin-4-yl}benzamide]",–
23.1 nM,12.7 nM,186 nM,5.57 mL/min/kg,385 min,65%,high,low,2.15 mL/min/kg,678 min,–,–,high,low,"C[C@H]1CCN1c1nc(-c2ccc(C(=O)N3C[C@@H](O)[C@@H](O)C3)cc2)cc(C(F)(F)F)n1 [Example 2, [(3R,4S)-3,4-Dihydroxypyrrolidin-1-yl]-[4-{2-[(2S)-2-methylazetidin-1-yl]-6-(trifluoromethyl)pyrimidin-4-yl}phenyl]methanone]",–
